The source of these data is patent US20100273200A1, “In-Vitro Model of Blood-Brain Barrier, In-Vitro Model of Diseased Blood-Brain Barrier, and Drug Screening Method, Analysis Method for Functions of Diseased Blood-Brain Barrier, and Analysis Method for Pathogenesis Using the Same” (priority 2005, published 2010).

Structures are written as SMILES.

This assay relates to ischemia-reperfusion BBB model. Description: Effects of radical scavenger edaravone on ischemia-reperfusion BBB model (TEER and Na—F permeability). Format: cell-based, rat. The note with it: edaravone added at the end of the 6 h ischemia period; 3 h reperfusion; FIG. 10. How it is done:
TEER was measured with ENDOHM (manufactured by WPI). Then, the experiment on Na—F permeability was conducted.
1/PSapper=1/PSmembrane+1/PStrans.
FIG. 4 is a graph showing variation per day of transendothelial electrical resistance value measurement results of 7 coculture models prepared by the method shown in Example 4. FIG. 5 is a graph comparing transendothelial electrical resistance value measurement results among 7 coculture models prepared by the method shown in Example 4. Transendothelial Electrical Resistance (TEER) was measured with ENDOHM (manufactured by WPI). The electrical resistance value of each BBB model was measured from 2 to 7 days after model preparation. The TEER values of E00, E0A, and E0P were calculated by subtracting therefrom the electrical resistance value of only the membrane. The TEER values of EA0 ad EAP were calculated by subtracting therefrom the electrical resistance value of the membrane on which only the astrocytes were cultured. The TEER values of EP0 ad EPA were calculated by subtracting therefrom the electrical resistance value of the membrane on which only the pericytes were cultured. […]

With `CC1=NN(c2ccccc2)C(=O)C1` [edaravone], the “reduction in TEER attributed to ischemia-reperfusion (reduction in tight junction function)” value was “significantly suppressed” and the “rise in Na—F permeability attributed to ischemia-reperfusion (reduction in tight junction function)” value was “significantly suppressed”.
